Source: patent US9487538B2, “Two-carbon linked artemisinin-derived trioxane dimers” (THE JOHNS HOPKINS UNIVERSITY, priority 2013, dated 2016)

Tests used:
[1] = test system: P. berghei ANKA strain; test: animal or person; assay type: in vivo; conditions: for average survival time of all mice receiving the compound: over both experiments, artemether: combination therapy groups
Procedure: Nearly all of the two-carbon linked dimer analogs were evaluated in Plasmodium berghei infected mice using a 60-day survival study. Each trioxane (0.64 mg) and mefloquine hydrochloride (1.92 mg) were dissolved in 100 μL of 7:3 Tween:EtOH mixture, and the mixture was further diluted with 965 μL of water (total volume of 1065 μL). Twenty-four hours after infection with P. berghei ANKA strain (2×10^7 parasitized erythrocytes), each of four 5-week old C57BL/6J mice (Jackson Laboratory, weighing approximately 20 g each) received 200 μL of the trioxane solution via oral gavage, corresponding to a dose of 6 mg/kg of trioxane and 18 mg/kg of mefloquine hydrochloride. Blood parasitemia levels and duration of animal survival as compared to survival time of animals receiving no drug were monitored, both being widely accepted measures of a drug's antimalarial efficacy.
A second mouse experiment was initiated to further evaluate several of the lead compounds. An alternative adjuvant to establish a broader understanding of the efficacy of these compounds also was evaluated. […] As summarized in Table 2, all of the lead compounds outperformed the drug artemether (4b), which prolonged survival to an average of 38.5 days and 19.0 days in combination with mefloquine and lumefantrine, respectively. One mouse receiving dimer methyl oxime Z-29 and mefloquine died early in the experiment (day 16) while the other three lived to day 60, an average of 49.0 days. Dimer methyl oxime Z-29 was, however, was marginally effective in combination with lumefantrine (26.3 day average) and not effective as a monotherapy, with an average survival time (8.3 days) similar to that of infected mice receiving no drug (8.8 days). Dimer allyl oxime 30 was efficacious in all three groups, extending survival time to 49.0 days, 41.3 days, and 46.8 days in combination with mefloquine, lumefantrine, or as a monotherapy, respectively. […] One mouse receiving mefloquine combination died at an extended time point (35 days) while the other three survived the entire 60 days, an average of 53.8 days. All four mice receiving lumefantrine combination survived the entire 60 days. […] The monotherapy dose prolonged survival time to 46.8 days, similar to that of dimer allyl oxime 30.

[2] = test system: P388 leukemia; conditions: NCI Report, tested on 25 Oct. 1983; cited from earlier work
[3] = test system: cell line panels consisting of 60 lines (nine disease-related subpanels); conditions: 60 cell lines; cited from earlier work
[4] = Table 1, trioxane 6 mg/kg + Mef-HCl 18 mg/kg, single oral dose
[5] = Table 1, trioxane 6 mg/kg + Mef-HCl 18 mg/kg, determined on day 3 post infection
[6] = Table 2, trioxane 6 mg/kg + mefloquine 18 mg/kg
[7] = Table 2, trioxane 6 mg/kg + lumefantrine 18 mg/kg
[8] = Table 2, trioxane 150 mg/kg, adjuvant none (monotherapy)
[9] = first experiment, trioxane 6 mg/kg + mefloquine hydrochloride 18 mg/kg, four mice

C[C@H]1[C@@H](/C(C[C@H]2O[C@@H]3O[C@@]4(C)CC[C@H]5[C@H](C)CC[C@@H]([C@H]2C)[C@@]35OO4)=N\OC(=O)N(C)C)O[C@@H]2O[C@@]3(C)CC[C@H]4[C@H](C)CC[C@@H]1[C@@]24OO3 [compound 35, dimer oxime dimethylcarbamate]
survival after infection avg [1, 4]: 51.8 days | % parasitemia suppression [1, 5]: >99.9%

C[C@H]1[C@@H](/C(C[C@H]2O[C@@H]3O[C@@]4(C)CC[C@H]5[C@H](C)CC[C@@H]([C@H]2C)[C@@]35OO4)=N\OCC2CC2)O[C@@H]2O[C@@]3(C)CC[C@H]4[C@H](C)CC[C@@H]1[C@@]24OO3 [compound 31, dimer O-methylcyclopropyl oxime]
% parasitemia suppression [1, 6]: >99.9% | survival after infection avg [1, 6]: 41 days

CO[C@H]1O[C@H](/C(C[C@H]2O[C@H](OC)[C@@]34OC(C)C3C(C)C[C@H]4[C@H]2C)=N\O)[C@H](C)[C@@H]2CC(C)C3C(C)O[C@@]312 (stereo partly drawn) [compound 28, Dimer Oxime]
survival after infection avg [1, 4]: 52.5 days | % parasitemia suppression [1, 5]: >99.9%

CO/N=C(/C[C@H]1O[C@H](OC)[C@@]23OC(C)C2C(C)C[C@H]3[C@H]1C)[C@H]1O[C@H](OC)[C@@]23OC(C)C2C(C)C[C@H]3[C@H]1C (stereo partly drawn) [Z-29, Dimer O-Methyl Oxime]
inhibition in vivo at 150 mg/kg ([1]; Plasmodium berghei, in Mus musculus, po, Table 2, trioxane 150 mg/kg, adjuvant none (monotherapy), read-out: % parasitemia suppression): 98% | survival after infection avg [1, 4]: 60.0 days | % parasitemia suppression [1, 5]: >99.9% | % parasitemia suppression [1, 7]: >99.9% | survival after infection avg [1, 7]: 26.3 days | % parasitemia suppression [1, 6]: >99.9% | survival after infection avg [1, 6]: 49.0 days | survival after infection avg [1, 8]: 8.3 days | cure of mice [1, 9]: complete cures of all four mice

C[C@@H]1CC[C@H]2[C@@H](C)C(=O)O[C@@H]3O[C@@]4(C)CC[C@@H]1[C@]32OO4 [artemisinin]
activity against P388 leukemia [2]: inactive | anticancer activity [3]: modest anticancer activity

CC(=O)O/N=C(/C[C@H]1O[C@@H]2O[C@@]3(C)CC[C@H]4[C@H](C)CC[C@@H]([C@H]1C)[C@@]24OO3)[C@H]1O[C@@H]2O[C@@]3(C)CC[C@H]4[C@H](C)CC[C@@H]([C@H]1C)[C@@]24OO3 [compound 36, dimer oxime acetate]
survival after infection avg [1, 4]: 27.3 days | % parasitemia suppression [1, 5]: >99.9%

CO[C@H]1O[C@@H]2O[C@@]3(C)CC[C@H]4[C@H](C)CC[C@@H]([C@H]1C)[C@@]24OO3 [artemether (4b), artemether, reference compound]
survival after infection avg [1, 4]: 40.0 days | % parasitemia suppression [1, 5]: >99.9% | % parasitemia suppression [1, 7]: >99.9% | survival after infection avg [1, 7]: 19.0 days | % parasitemia suppression [1, 6]: >99.9% | survival after infection avg [1, 6]: 38.5 days | average survival time of all mice receiving the compound [1]: 31.7 days

C#CCO/N=C(/C[C@H]1O[C@@H]2O[C@@]3(C)CC[C@H]4[C@H](C)CC[C@@H]([C@H]1C)[C@@]24OO3)[C@H]1O[C@@H]2O[C@@]3(C)CC[C@H]4[C@H](C)CC[C@@H]([C@H]1C)[C@@]24OO3 [compound 34, dimer propargyl oxime]
inhibition in vivo at 6 mg/kg ([1]; Plasmodium berghei, in Mus musculus, po, Table 2, as printed: trioxane 6 mg/kg, adjuvant none, dose 18, read-out: % parasitemia suppression): > 99.9% | survival after infection avg [1, 4]: 60.0 days | % parasitemia suppression [1, 5]: >99.9% | survival after infection avg ([1]; Table 2, as printed: trioxane 6 mg/kg, adjuvant none, dose 18): 46.8 days | % parasitemia suppression [1, 7]: >99.9% | survival after infection avg [1, 7]: 60.0 days | survival after infection ([1]; Table 2, trioxane 6 mg/kg + lumefantrine 18 mg/kg, single oral dose): 60 days | % parasitemia suppression [1, 6]: >99.9% | survival after infection avg [1, 6]: 53.8 days | survival after infection avg [1, 8]: 46.8 days | cure of mice [1, 9]: complete cures of all four mice | average survival time of all mice receiving the compound [1]: 55.1 days | cure of mice ([1]; two separate experiments, in combination with two different adjuvants (mefloquine and lumefantrine)): complete cure

C[C@H]1[C@@H](/C(C[C@H]2O[C@@H]3O[C@@]4(C)CC[C@H]5[C@H](C)CC[C@@H]([C@H]2C)[C@@]35OO4)=N\OC(C)(C)C)O[C@@H]2O[C@@]3(C)CC[C@H]4[C@H](C)CC[C@@H]1[C@@]24OO3 [compound 33, dimer tert-butyl oxime]
% parasitemia suppression [1, 6]: >99.9% | survival after infection avg [1, 6]: 23.8 days

CO/N=C(\C[C@H]1O[C@H](OC)[C@@]23OC(C)C2C(C)C[C@H]3[C@H]1C)[C@H]1O[C@H](OC)[C@@]23OC(C)C2C(C)C[C@H]3[C@H]1C (stereo partly drawn) [E-29, Dimer O-Methyl Oxime]
% parasitemia suppression [1, 6]: >99.9% | survival after infection avg [1, 6]: 37.0 days

C[C@H]1[C@@H](C(=O)C[C@H]2O[C@@H]3O[C@]4(C)CC[C@H]5[C@H](C)CC[C@@H]([C@H]2C)[C@@]35OO4)O[C@@H]2O[C@]3(C)CC[C@H]4[C@H](C)CC[C@@H]1[C@@]24OO3 [compound 24, Artemisinin Two-Carbon Linked Dimer Ketone]
survival after infection avg [1, 4]: 48.3 days | % parasitemia suppression [1, 5]: >99.9%
